Experimental findings from BindingDB's records for patent US12054475 (Kayothera, 2024) are described below.

Experiment [1] deals with T1, Retinal dehydrogenase 2 (Homo sapiens, UniProt O94788).
T1 sequence (O94788 whole entry): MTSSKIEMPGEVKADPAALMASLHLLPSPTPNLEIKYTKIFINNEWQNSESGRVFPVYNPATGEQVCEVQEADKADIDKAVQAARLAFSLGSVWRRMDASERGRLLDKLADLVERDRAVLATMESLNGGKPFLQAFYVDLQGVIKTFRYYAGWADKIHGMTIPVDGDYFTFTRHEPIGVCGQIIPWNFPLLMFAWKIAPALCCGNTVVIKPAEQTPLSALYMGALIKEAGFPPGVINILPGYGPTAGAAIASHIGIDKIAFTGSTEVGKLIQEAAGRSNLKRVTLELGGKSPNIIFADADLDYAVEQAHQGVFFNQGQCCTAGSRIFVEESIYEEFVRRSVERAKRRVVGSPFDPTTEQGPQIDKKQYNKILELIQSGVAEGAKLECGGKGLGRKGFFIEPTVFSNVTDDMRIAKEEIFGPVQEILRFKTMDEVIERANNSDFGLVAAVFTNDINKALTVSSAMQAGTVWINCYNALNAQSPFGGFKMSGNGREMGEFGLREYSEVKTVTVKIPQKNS
Description: Aldh1a2 Enzyme Inhibition Assay.

Experiment [2] has as its target T2, Retinal dehydrogenase 2 (UniProt Q62148).
T2 sequence (Q62148 whole entry): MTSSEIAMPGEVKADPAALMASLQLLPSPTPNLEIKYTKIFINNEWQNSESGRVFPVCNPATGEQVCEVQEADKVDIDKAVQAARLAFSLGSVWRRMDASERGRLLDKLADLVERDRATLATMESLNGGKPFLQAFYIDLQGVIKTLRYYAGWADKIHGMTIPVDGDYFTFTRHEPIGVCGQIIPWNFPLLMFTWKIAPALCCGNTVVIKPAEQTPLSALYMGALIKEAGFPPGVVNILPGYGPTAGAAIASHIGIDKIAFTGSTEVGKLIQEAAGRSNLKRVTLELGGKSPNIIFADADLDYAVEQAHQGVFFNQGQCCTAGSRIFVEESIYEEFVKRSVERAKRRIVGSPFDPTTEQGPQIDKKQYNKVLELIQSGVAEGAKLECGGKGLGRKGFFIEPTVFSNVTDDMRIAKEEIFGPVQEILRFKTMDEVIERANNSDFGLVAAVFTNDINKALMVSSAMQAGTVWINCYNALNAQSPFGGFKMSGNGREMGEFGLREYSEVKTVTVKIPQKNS
Description: Aldh1a2 Enzyme Inhibition Assay.

As usually defined, the IC50 is the concentration at which inhibition is half-maximal. Take `CCC1COCCN1C(=O)Nc1cc(C)c2c(c1)CCC(=O)N2` (racemic) [US12054475, Compound 193]: the IC50 against Retinal dehydrogenase 2 [1] and at Retinal dehydrogenase 2 [2] was greater than 10 µM throughout.
